Experimental data from patent US8802597B2, “Herbicidal pyrimidines” (E I du Pont de Nemours and Company, priority 2003, dated 2014).
Like-named read-outs stand apart in the source and are kept apart here.

Columns and labels:
Assay type in all cases: in vivo
[1] = system: barnyardgrass (Echinochloa crus-galli); assay: Test A pre/postemergence; settings: Echinochloa crus-galli, 240 h, read-out: Plant response rating, Barnyardgrass; for pest or weed control at 125 g/ha: 125 g ai/ha; for pest or weed control at 500 g/ha: 500 g ai/ha
In short: (§1)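 Ratings: 0 = no effect, 100 = complete control, assessed visually about ten days post-treatment in a greenhouse. Applications: soil-directed preemergence spray and postemergence spray on 1- to 2-leaf plants, both using a surfactant-containing non-phytotoxic solvent formulation.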

[2] = system: crabgrass (Digitaria sanguinalis); assay: Test A pre/postemergence; settings: Digitaria sanguinalis, 240 h, read-out: Plant response rating, Crabgrass; for pest or weed control at 125 g/ha: 125 g ai/ha; for pest or weed control at 500 g/ha: 500 g ai/ha
In short: as §1

[3] = system: bermudagrass (Cynodon dactylon); assay: Test C pre/postemergence; settings: Cynodon dactylon; for pest or weed control at 8 g/ha: 8 g ai/ha; for pest or weed control at 16 g/ha: 16 g ai/ha; for pest or weed control at 31 g/ha: 31 g ai/ha; for pest or weed control at 62 g/ha: 62 g ai/ha
In short: (§2)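 Greenhouse pot test: seeds treated preemergence, or plants at 2–18 cm (1- to 4-leaf stage) treated postemergence, with compound in non-phytotoxic solvent plus surfactant. Visual rating versus untreated controls after 12–14 days, scale 0 (no effect) to 100 (complete control); dash means not tested.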

[4] = system: common ragweed (Ambrosia elatior); assay: Test C pre/postemergence; settings: Ambrosia artemisiifolia; for pest or weed control at 8 g/ha: 8 g ai/ha; for pest or weed control at 16 g/ha: 16 g ai/ha; for pest or weed control at 31 g/ha: 31 g ai/ha; for pest or weed control at 62 g/ha: 62 g ai/ha
In short: as §2

[5] = system: goosegrass (Eleusine indica); assay: Test C pre/postemergence; settings: Eleusine indica; for pest or weed control at 8 g/ha: 8 g ai/ha; for pest or weed control at 16 g/ha: 16 g ai/ha; for pest or weed control at 31 g/ha: 31 g ai/ha; for pest or weed control at 62 g/ha: 62 g ai/ha
In short: as §2

[6] = system: pigweed (Amaranthus retroflexus); assay: Test C pre/postemergence; settings: Amaranthus retroflexus; for pest or weed control at 8 g/ha: 8 g ai/ha; for pest or weed control at 16 g/ha: 16 g ai/ha; for pest or weed control at 31 g/ha: 31 g ai/ha; for pest or weed control at 62 g/ha: 62 g ai/ha
In short: as §2

[7] = system: velvetleaf (Abutilon theophrasti); assay: Test C pre/postemergence; settings: Abutilon theophrasti; for pest or weed control at 8 g/ha: 8 g ai/ha; for pest or weed control at 16 g/ha: 16 g ai/ha; for pest or weed control at 31 g/ha: 31 g ai/ha; for pest or weed control at 62 g/ha: 62 g ai/ha
In short: as §2

[8] = system: woolly cupgrass (Eriochloa villosa); assay: Test C pre/postemergence; settings: Eriochloa villosa; for pest or weed control at 8 g/ha: 8 g ai/ha; for pest or weed control at 16 g/ha: 16 g ai/ha; for pest or weed control at 31 g/ha: 31 g ai/ha; for pest or weed control at 62 g/ha: 62 g ai/ha
In short: as §2

[9] = system: yellow nutsedge (Cyperus esculentus); assay: Test C pre/postemergence; settings: Cyperus; for pest or weed control at 8 g/ha: 8 g ai/ha; for pest or weed control at 16 g/ha: 16 g ai/ha; for pest or weed control at 31 g/ha: 31 g ai/ha; for pest or weed control at 62 g/ha: 62 g ai/ha
In short: as §2

[10] = system: chickweed (Stellaria media); assay: Test C postemergence; settings: Stellaria media, post-emergence
In short: as §2

[11] = post-emergence, Postemergence, 0 to 100 scale (0 no effect, 100 complete control)
[12] = pre-emergence, Preemergence, 0 to 100 scale where 0 is no effect and 100 is complete control, approximately ten days
[13] = post-emergence, Postemergence, read-out: Plant response rating (scale of 0 to 100), Bermudagrass
[14] = pre-emergence, Preemergence, scale 0 to 100, 0 no effect, 100 complete control, read-out: Plant response rating, Bermudagrass
[15] = post-emergence, Postemergence, read-out: Plant response rating (scale of 0 to 100), Ragweed
[16] = pre-emergence, Preemergence, scale 0 to 100, 0 no effect, 100 complete control, read-out: Plant response rating, Ragweed
[17] = post-emergence, Postemergence, read-out: Plant response rating (scale of 0 to 100), Goosegrass
[18] = pre-emergence, Preemergence, scale 0 to 100, 0 no effect, 100 complete control, read-out: Plant response rating, Goosegrass
[19] = post-emergence, Postemergence, read-out: Plant response rating (scale of 0 to 100), Pigweed
[20] = pre-emergence, Preemergence, scale 0 to 100, 0 no effect, 100 complete control, read-out: Plant response rating, Pigweed
[21] = post-emergence, Postemergence, read-out: Plant response rating (scale of 0 to 100), Velvetleaf
[22] = pre-emergence, Preemergence, scale 0 to 100, 0 no effect, 100 complete control, read-out: Plant response rating, Velvetleaf
[23] = post-emergence, Postemergence, read-out: Plant response rating (scale of 0 to 100), Cupgrass, Woolly
[24] = pre-emergence, Preemergence, scale 0 to 100, 0 no effect, 100 complete control, read-out: Plant response rating, Cupgrass, Woolly
[25] = post-emergence, Postemergence, read-out: Plant response rating (scale of 0 to 100), Nutsedge, Yellow
[26] = pre-emergence, Preemergence, scale 0 to 100, 0 no effect, 100 complete control, read-out: Plant response rating, Nutsedge, Yellow

Nc1nc(-c2ccc(Br)cc2)nc(C(=O)O)c1Cl [Compound 95, 6-amino-2-(4-bromophenyl)-5-chloro-4-pyrimidinecarboxylic acid]
70%: pest or weed control at 125 g/ha [2, 11] | pest or weed control at 8 g/ha ([3]; post-emergence, Postemergence, scale 0 to 100 (0 no effect, 100 complete control), read-out: Plant response rating, Bermudagrass) | pest or weed control at 16 g/ha [3, 13]
100%: pest or weed control at 31 g/ha [4, 16] | pest or weed control at 62 g/ha [4, 16] | pest or weed control at 31 g/ha [6, 19] | pest or weed control at 62 g/ha [6, 19] | pest or weed control at 31 g/ha [6, 20] | pest or weed control at 62 g/ha [6, 20] | pest or weed control at 31 g/ha [7, 21] | pest or weed control at 62 g/ha [7, 21]
95%: pest or weed control at 16 g/ha [4, 15] | pest or weed control at 31 g/ha [4, 15] | pest or weed control at 62 g/ha [4, 15] | pest or weed control at 16 g/ha [6, 19] | pest or weed control at 8 g/ha ([7]; post-emergence, Postemergence, scale 0 to 100, read-out: Plant response rating, Velvetleaf) | pest or weed control at 16 g/ha [7, 21] | pest or weed control at 8 g/ha ([10]; 8 g ai/ha, scale 0 to 100, read-out: Plant response rating, Chickweed) | pest or weed control at 62 g/ha ([10]; 62 g ai/ha, read-out: Plant response rating (scale of 0 to 100), Chickweed)
50%: pest or weed control at 8 g/ha ([5]; post-emergence, Postemergence, scale 0 to 100, read-out: Plant response rating, Goosegrass) | pest or weed control at 8 g/ha ([6]; pre-emergence, Preemergence, scale 0 to 100 (0 no effect, 100 complete control), read-out: Plant response rating, Pigweed)
20%: pest or weed control at 125 g/ha [1, 12]
40%: pest or weed control at 62 g/ha [5, 18] | pest or weed control at 16 g/ha [9, 26]
85%: pest or weed control at 500 g/ha [2, 12] | pest or weed control at 31 g/ha [3, 13] | pest or weed control at 62 g/ha ([3]; post-emergence, Postemergence, scale 0 to 100 (0 no effect, 100 complete control), read-out: Bermudagrass plant response rating)
65%: pest or weed control at 125 g/ha [2, 12] | pest or weed control at 8 g/ha ([4]; pre-emergence, Preemergence, scale 0 to 100 (0 no effect, 100 complete control), read-out: Plant response rating, Ragweed) | pest or weed control at 16 g/ha [5, 17]
75%: pest or weed control at 125 g/ha [1, 11] | pest or weed control at 31 g/ha [5, 17] | pest or weed control at 8 g/ha ([8]; post-emergence, Postemergence, scale 0 to 100, read-out: Plant response rating, Cupgrass, Woolly) | pest or weed control at 16 g/ha [8, 23] | pest or weed control at 31 g/ha [8, 23] | pest or weed control at 62 g/ha [9, 25]
80%: pest or weed control at 500 g/ha [1, 12] | pest or weed control at 500 g/ha [2, 11] | pest or weed control at 62 g/ha [5, 17] | pest or weed control at 62 g/ha [8, 23]
10%: pest or weed control at 31 g/ha [5, 18]
55%: pest or weed control at 62 g/ha [3, 14] | pest or weed control at 8 g/ha ([9]; post-emergence, Postemergence, scale 0 to 100, read-out: Plant response rating, Nutsedge, Yellow)
60%: pest or weed control at 31 g/ha [7, 22] | pest or weed control at 16 g/ha [9, 25] | pest or weed control at 31 g/ha [9, 25] | pest or weed control at 31 g/ha [9, 26] | pest or weed control at 62 g/ha [9, 26]
90%: pest or weed control at 500 g/ha [1, 11] | pest or weed control at 8 g/ha ([4]; post-emergence, Postemergence, scale 0 to 100, read-out: Plant response rating, Ragweed) | pest or weed control at 16 g/ha [4, 16] | pest or weed control at 8 g/ha ([6]; post-emergence, Postemergence, scale 0 to 100, read-out: Plant response rating, Pigweed) | pest or weed control at 16 g/ha [6, 20] | pest or weed control at 62 g/ha [7, 22]
0%: pest or weed control at 8 g/ha ([3]; pre-emergence, Preemergence, scale 0 to 100 (0 no effect, 100 complete control), read-out: Plant response rating, Bermudagrass) | pest or weed control at 16 g/ha [3, 14] | pest or weed control at 31 g/ha [3, 14] | pest or weed control at 8 g/ha ([5]; pre-emergence, Preemergence, scale 0 to 100 (0 no effect, 100 complete control), read-out: Plant response rating, Goosegrass) | pest or weed control at 16 g/ha [5, 18] | pest or weed control at 8 g/ha ([7]; pre-emergence, Preemergence, scale 0 to 100 (0 no effect, 100 complete control), read-out: Plant response rating, Velvetleaf) | pest or weed control at 16 g/ha [7, 22] | pest or weed control at 8 g/ha ([8]; pre-emergence, Preemergence, scale 0 to 100 (0 no effect, 100 complete control), read-out: Plant response rating, Cupgrass, Woolly) | pest or weed control at 16 g/ha [8, 24] | pest or weed control at 31 g/ha [8, 24] | pest or weed control at 8 g/ha ([9]; pre-emergence, Preemergence, scale 0 to 100 (0 no effect, 100 complete control), read-out: Plant response rating, Nutsedge, Yellow)
5%: pest or weed control at 62 g/ha [8, 24]
